How the values were obtained:
uterotrophic activity = details: cited from earlier work; for oestrogenicity: rat, in vivo
E1-STS [1] = biological target: T1, E1-STS (Homo sapiens, UniProt P08842); details: cited from earlier work
T1 sequence (P08842 22-583): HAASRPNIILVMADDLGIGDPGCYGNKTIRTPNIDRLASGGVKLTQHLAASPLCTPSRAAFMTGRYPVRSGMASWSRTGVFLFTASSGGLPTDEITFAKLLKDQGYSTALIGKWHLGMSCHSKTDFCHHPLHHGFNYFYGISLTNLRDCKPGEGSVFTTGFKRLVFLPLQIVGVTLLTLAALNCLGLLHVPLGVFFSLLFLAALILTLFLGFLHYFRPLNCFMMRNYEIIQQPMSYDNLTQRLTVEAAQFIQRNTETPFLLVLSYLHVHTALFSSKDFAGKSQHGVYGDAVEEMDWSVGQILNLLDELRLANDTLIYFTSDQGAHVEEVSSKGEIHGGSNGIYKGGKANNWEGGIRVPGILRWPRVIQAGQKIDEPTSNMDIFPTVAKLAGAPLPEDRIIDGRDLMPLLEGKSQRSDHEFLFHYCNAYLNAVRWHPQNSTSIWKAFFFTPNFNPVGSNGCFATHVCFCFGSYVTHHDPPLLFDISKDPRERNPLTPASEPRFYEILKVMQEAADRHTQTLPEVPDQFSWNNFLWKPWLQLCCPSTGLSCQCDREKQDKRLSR

[2] = cited from earlier work
E1-STS [3] = biological target: T1, E1-STS; parameters: endogenous in cells; host or cells: MCF-7 cells (intact); details: intact MCF-7 cells, 0.1 nM; cited from earlier work
DU145 cells = assay: Antiproliferative assay in DU145 cells, WST-1 cell proliferation assay, 96 hours (GI50); assay type: cell-based; details: Homo sapiens, DU-145, 96 hours post-treatment
Summary of the method: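 DU145 cells seeded at 5000 cells/well, treated with […] compound or vehicle for 96 h. Viability read by WST-1, expressed as percent of mean control, GI50 derived; triplicate experiments.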

Compound | GI50 (DU145 cells; triplicate) [µM] | melting point | also measured
COc1cc2c(cc1OS(N)(=O)=O)CC[C@@H]1[C@@H]2CC[C@]2(C)C(=O)CC[C@@H]12 [2-methoxyoestrone-3-O-sulphamate] | – | – | oestrogenicity (uterotrophic activity): devoid of oestrogenicity; potency as steroid sulphatase inhibitor relative to EMATE (E1-STS [1]): equipotent with EMATE
C[C@]12CC[C@@H]3c4ccc(OS(=O)(=O)O)cc4CC[C@H]3[C@@H]1CCC2=O [E1S, oestrone sulphate] | – | – | half-life in blood [2]: 10 to 12 h
CC12CCC3c4ccc(OS(N)(=O)=O)cc4CCC3C1CCC2=O (stereo not drawn) [EMATE, oestrone-3-sulphamate] | – | – | inhibition of E1-STS activity (E1-STS [3]): more than 99%; oestrogenicity (uterotrophic activity): potent oestrogenic properties; oral uterotrophic activity relative to estradiol (uterotrophic activity; rats, oral): 100 times; mode of E1-STS enzyme inhibition (inactivation) (E1-STS [1]): time- and concentration-dependent manner
COc1cccc(S(=O)(=O)N2CCc3cc(OCc4ccccc4)c(OC)cc3C2)c1 [compound 169, 6-Benzyloxy-7-methoxy-2-(3-methoxy-benzenesulfonyl)-1,2,3,4-tetrahydroisoquinoline] | > 100 | 124 to 125 °C | –
COc1cc2c(cc1OCc1ccccc1)CCN(S(=O)(=O)c1cccc(OC(F)(F)F)c1)C2 [compound 170, 6-Benzyloxy-7-methoxy-2-(3-trifluoromethoxy-benzenesulfonyl)-1,2,3,4-tetrahydroisoquinoline] | > 100 | 118 to 120 °C | –
COc1cc2c(cc1OCc1ccccc1)CCN(S(=O)(=O)c1cccc(C)c1)C2 [compound 171, 6-Benzyloxy-7-methoxy-2-(toluene-3-sulfonyl)-1,2,3,4-tetrahydroisoquinoline] | > 100 | 144 to 147 °C | –
COc1cc2c(cc1OCc1ccccc1)CCN(S(=O)(=O)c1cccc(C(F)(F)F)c1)C2 [compound 172, 6-Benzyloxy-7-methoxy-2-(3-trifluoromethyl-benzenesulfonyl)-1,2,3,4-tetrahydroisoquinoline] | > 100 | 136 to 138.5 °C | –
COc1cccc(S(=O)(=O)N2CCc3cc(O)c(OC)cc3C2)c1 [compound 178, 6-Hydroxy-7-methoxy-2-(3-methoxy-benzenesulfonyl)-1,2,3,4-tetrahydroisoquinoline] | > 100 | 168 to 170 °C | –
COc1cc2c(cc1O)CCN(S(=O)(=O)c1cccc(OC(F)(F)F)c1)C2 [compound 179, 6-Hydroxy-7-methoxy-2-(3-trifluoromethoxy-benzenesulfonyl)-1,2,3,4-tetrahydroisoquinoline] | > 100 | 202 to 203 °C | –
COc1cc2c(cc1O)CCN(S(=O)(=O)c1cccc(C)c1)C2 [compound 180, 6-Hydroxy-7-methoxy-2-(toluene-3-sulfonyl)-1,2,3,4-tetrahydroisoquinoline] | > 100 | 176 to 179 °C | –
COc1cc2c(cc1O)CCN(S(=O)(=O)c1cccc(C(F)(F)F)c1)C2 [compound 181, 6-Hydroxy-7-methoxy-2-(3-trifluoromethyl-benzenesulfonyl)-1,2,3,4-tetrahydroisoquinoline] | > 100 | 178 to 180 °C | –
COc1cc2c(cc1O)CCN(S(=O)(=O)c1cccc(Cl)c1)C2 [compound 182, 2-(3-Chloro-benzenesulfonyl)-6-hydroxy-7-methoxy-1,2,3,4-tetrahydroisoquinoline] | > 100 | 175 to 178 °C | –
COc1cc2c(cc1O)CCN(S(=O)(=O)c1ccccc1C#N)C2 [compound 183, 2-(2-Cyano-benzenesulfonyl)-6-hydroxy-7-methoxy-1,2,3,4-tetrahydroisoquinoline] | > 100 | 164 to 167 °C | –
COc1cc2c(cc1O)CCN(S(=O)(=O)c1ccccc1OC)C2 [compound 184, 6-Hydroxy-7-methoxy-2-(2-methoxy-benzenesulfonyl)-1,2,3,4-tetrahydroisoquinoline] | > 100 | 140 to 142 °C | –
COc1ccc(S(=O)(=O)N2CCc3cc(O)c(OC)cc3C2)cc1 [compound 185, 6-Hydroxy-7-methoxy-2-(4-methoxy-benzenesulfonyl)-1,2,3,4-tetrahydroisoquinoline] | > 100 | 147 to 149 °C | –
COc1cc2c(cc1O)CCN(S(=O)(=O)c1cccc(C#N)c1)C2 [compound 186, 2-(3-Cyano-benzenesulfonyl)-6-hydroxy-7-methoxy-1,2,3,4-tetrahydroisoquinoline] | > 100 | 204 to 206 °C | –
COc1cc2c(cc1OCc1ccccc1)CCN(S(=O)(=O)c1ccccc1OC)C2=O [compound 197, 6-Benzyloxy-7-methoxy-2-(2-methoxy-benzenesulfonyl)-3,4-dihydro-2H-isoquinolin-1-one] | > 100 | 202 to 203 °C | –
COc1cc2c(cc1OCc1ccccc1)CCN(S(=O)(=O)c1cccc(Cl)c1)C2=O [compound 199, 6-Benzyloxy-2-(3-chloro-benzenesulfonyl)-7-methoxy-3,4-dihydro-2H-isoquinolin-1-one] | > 100 | 155 to 158 °C | –
COc1cc2c(cc1O)CCN(S(=O)(=O)c1ccccc1OC)C2=O [compound 200, 6-Hydroxy-7-methoxy-2-(2-methoxy-benzenesulfonyl)-3,4-dihydro-2H-isoquinolin-1-one] | > 100 | 222 to 224 °C | –
COc1cccc(S(=O)(=O)N2CCc3cc(O)c(OC)cc3C2=O)c1 [compound 201, 6-Hydroxy-7-methoxy-2-(3-methoxy-benzenesulfonyl)-3,4-dihydro-2H-isoquinolin-1-one] | > 100 | 195 to 197 °C | –
COc1ccc(S(=O)(=O)N2CCc3cc(O)c(OC)cc3C2=O)cc1 [compound 202, 6-Hydroxy-7-methoxy-2-(4-methoxy-benzenesulfonyl)-3,4-dihydro-2H-isoquinolin-1-one] | > 100 | 202 to 204 °C | –
COc1cc2c(cc1O)CCN(S(=O)(=O)c1cccc(Cl)c1)C2=O [compound 203, 2-(3-Chloro-benzenesulfonyl)-6-hydroxy-7-methoxy-3,4-dihydro-2H-isoquinolin-1-one] | – | 178 to 181 °C | GI50 (DU145 cells; 50% growth inhibition): > 100 µM
COc1cccc(CN2Cc3cc(OC)c(O)cc3CC2C)c1 (stereo not drawn) [compound 217, 2-(3-Methoxybenzyl)-1,2,3,4-tetrahydro-7-methoxy-3-methylisoquinolin-6-ol] | – | 100 to 105 °C | GI50 (DU145 cells; 50% growth inhibition): < 10 µM
COc1cc(CN2Cc3cc(OC)c(O)cc3CC2C)cc(OC)c1 (stereo not drawn) [compound 218, 2-(3,5-Dimethoxybenzyl)-1,2,3,4-tetrahydro-7-methoxy-3-methylisoquinolin-6-ol] | – | 155 to 158 °C | GI50 (DU145 cells; 50% growth inhibition): 10 to 50 µM
COc1cc2c(cc1O)CC(C)(C)N(C(=O)c1cc(OC)c(OC)c(OC)c1)C2 [compound 234, (6-Hydroxy-7-methoxy-3,3-dimethyl-3,4-dihydro-1H-isoquinolin-2-yl)-(3,4,5-trimethoxy-phenyl)-methanone] | – | 159 to 162 °C | GI50 (DU145 cells; 50% growth inhibition): > 100 µM
COc1cc2c(cc1OS(N)(=O)=O)CC(C)(C)N(C(=O)c1cc(OC)c(OC)c(OC)c1)C2 [compound 236, Sulfamic acid 7-methoxy-3,3-dimethyl-2-(3,4,5-trimethoxy-benzoyl)-1,2,3,4-tetrahydro-isoquinolin-6-yl ester] | – | 172 to 176 °C | GI50 (DU145 cells; 50% growth inhibition): > 100 µM
COc1cc(OC)cc(C(=O)N2Cc3cc(OC)c(OS(N)(=O)=O)cc3CC2(C)C)c1 [compound 237, Sulfamic acid 2-(3,5-dimethoxy-benzoyl)-7-methoxy-3,3-dimethyl-1,2,3,4-tetrahydro-isoquinolin-6-yl ester] | – | > 180 °C (dec.) | GI50 (DU145 cells; 50% growth inhibition): > 100 µM
oestrone-3-N-sulphamate | – | – | mode of E1-STS enzyme inhibition (inactivation) (E1-STS [1]): weaker non-time-dependent inactivators
oestrone-3-S-sulphamate | – | – | mode of E1-STS enzyme inhibition (inactivation) (E1-STS [1]): weaker non-time-dependent inactivators
